Organism: Rattus norvegicus
Test: Open TG-GATES - Regimen: Single
Type: toxicity, organism-based, Sprague-Dawley
Design: regimen Single, gender Male, age 6 weeks
Conditions: in vivo, po, 100 mg/kg, route gavage, dose level Middle; for APTT / Bas / Eos / Fbg / Hb / Ht / Lym / MCH / MCHC / MCV / Mono / Neu / PT / Plat / RBC / Ret / WBC: tissue Blood; for KIDNEY_L / KIDNEY_R / KIDNEY_TOTAL: tissue Kidney; for LIVER: tissue Liver; for A/G / ALP / ALT / AST / BUN / CRE / Ca / Cl / DBIL / GLC / IP / K / LDH / Na / PL / RALB / TBIL / TC / TG / TP / gamma-GTP: tissue Plasma

CCCNC(=O)NS(=O)(=O)c1ccc(Cl)cc1 [CHLORPROPAMIDE]
TERMINAL_BW (3 h): 198.7 g | APTT (3 h): 19.6 s | Bas (3 h): 0% | Eos (3 h): 1% | Fbg (3 h): 311.8 mg/dL | Hb (3 h): 13.9 g/dL | Ht (3 h): 42.7% | Lym (3 h): 73.2% | MCH (3 h): 21.4 pg | MCHC (3 h): 32.5% | MCV (3 h): 66 fL | Mono (3 h): 3.8% | Neu (3 h): 20.8% | PT (3 h): 15.6 s | Plat (3 h): 113.1 x10_4/uL | RBC (3 h): 648.4 x10_4/ul | Ret (3 h): 9.2% | WBC (3 h): 72.2 x10_2/uL | KIDNEY_L (3 h): 0.9 g | KIDNEY_R (3 h): 0.9 g | KIDNEY_TOTAL (3 h): 1.8 g | LIVER (3 h): 8.8 g | A/G (3 h): 0.9 | ALP (3 h): 1315.6 IU/L | ALT (3 h): 48.8 IU/L | AST (3 h): 80 IU/L | BUN (3 h): 11.2 mg/dL | CRE (3 h): 0.2 mg/dL | Ca (3 h): 10.8 mg/dL | Cl (3 h): 107.8 meq/L | DBIL (3 h): 0.01 mg/dL | GLC (3 h): 126.4 mg/dL | IP (3 h): 9.2 mg/dL | K (3 h): 3.8 meq/L | LDH (3 h): 71.6 IU/L | Na (3 h): 144.6 meq/L | PL (3 h): 129 mg/dL | RALB (3 h): 2.6 g/dL | TBIL (3 h): 0.02 mg/dL | TC (3 h): 74.6 mg/dL | TG (3 h): 71 mg/dL | TP (3 h): 5.7 g/dL | gamma-GTP (3 h): 1.4 IU/L | TERMINAL_BW (6 h): 194.9 g | APTT (6 h): 23.7 s | Bas (6 h): 0.2% | Eos (6 h): 1% | Fbg (6 h): 317 mg/dL | Hb (6 h): 13.6 g/dL | Ht (6 h): 41.9% | Lym (6 h): 71.6% | MCH (6 h): 21.7 pg | MCHC (6 h): 32.4% | MCV (6 h): 66.9 fL | Mono (6 h): 3.6% | Neu (6 h): 22.4% | PT (6 h): 15.1 s | Plat (6 h): 122.2 x10_4/uL | RBC (6 h): 627 x10_4/ul | Ret (6 h): 9.8% | WBC (6 h): 96.8 x10_2/uL | KIDNEY_L (6 h): 0.9 g | KIDNEY_R (6 h): 0.8 g | KIDNEY_TOTAL (6 h): 1.7 g | LIVER (6 h): 8 g | A/G (6 h): 0.9 | ALP (6 h): 1525.8 IU/L | ALT (6 h): 44.2 IU/L | AST (6 h): 80.8 IU/L | BUN (6 h): 12.6 mg/dL | CRE (6 h): 0.2 mg/dL | Ca (6 h): 11 mg/dL | Cl (6 h): 109 meq/L | DBIL (6 h): 0.002 mg/dL | GLC (6 h): 123.8 mg/dL | IP (6 h): 9.9 mg/dL | K (6 h): 4 meq/L | LDH (6 h): 81 IU/L | Na (6 h): 143.8 meq/L | PL (6 h): 139.6 mg/dL | RALB (6 h): 2.6 g/dL | TBIL (6 h): 0.02 mg/dL | TC (6 h): 85.4 mg/dL | TG (6 h): 49.8 mg/dL | TP (6 h): 5.7 g/dL | gamma-GTP (6 h): 1.2 IU/L | TERMINAL_BW (9 h): 194.2 g | APTT (9 h): 17.1 s | Bas (9 h): 0% | Eos (9 h): 1% | Fbg (9 h): 307.8 mg/dL | Hb (9 h): 13.1 g/dL | Ht (9 h): 40.7% | Lym (9 h): 71.4% | MCH (9 h): 20.9 pg | MCHC (9 h): 32.3% | MCV (9 h): 64.8 fL | Mono (9 h): 3% | Neu (9 h): 24% | PT (9 h): 15.1 s | Plat (9 h): 119.5 x10_4/uL | RBC (9 h): 627.4 x10_4/ul | Ret (9 h): 10% | WBC (9 h): 82.5 x10_2/uL | KIDNEY_L (9 h): 0.9 g | KIDNEY_R (9 h): 0.9 g | KIDNEY_TOTAL (9 h): 1.8 g | LIVER (9 h): 7.8 g | A/G (9 h): 0.9 | ALP (9 h): 1124.6 IU/L | ALT (9 h): 35.6 IU/L | AST (9 h): 77 IU/L | BUN (9 h): 9.8 mg/dL | CRE (9 h): 0.2 mg/dL | Ca (9 h): 10.7 mg/dL | Cl (9 h): 107.6 meq/L | DBIL (9 h): 0 mg/dL | GLC (9 h): 119.4 mg/dL | IP (9 h): 10.1 mg/dL | K (9 h): 3.9 meq/L | LDH (9 h): 68.6 IU/L | Na (9 h): 143.2 meq/L | PL (9 h): 120.4 mg/dL | RALB (9 h): 2.5 g/dL | TBIL (9 h): 0.026 mg/dL | TC (9 h): 70.8 mg/dL | TG (9 h): 37 mg/dL | TP (9 h): 5.4 g/dL | gamma-GTP (9 h): 1.2 IU/L | TERMINAL_BW (24 h): 210.9 g | APTT (24 h): 20 s | Bas (24 h): 0% | Eos (24 h): 1% | Fbg (24 h): 318.2 mg/dL | Hb (24 h): 12.6 g/dL | Ht (24 h): 39.1% | Lym (24 h): 73% | MCH (24 h): 21 pg | MCHC (24 h): 32.2% | MCV (24 h): 65.2 fL | Mono (24 h): 3.6% | Neu (24 h): 21% | PT (24 h): 15.8 s | Plat (24 h): 111.8 x10_4/uL | RBC (24 h): 599.4 x10_4/ul | Ret (24 h): 9.2% | WBC (24 h): 97.9 x10_2/uL | KIDNEY_L (24 h): 0.9 g | KIDNEY_R (24 h): 1 g | KIDNEY_TOTAL (24 h): 1.9 g | LIVER (24 h): 9.6 g | A/G (24 h): 0.9 | ALP (24 h): 1496.2 IU/L | ALT (24 h): 45.4 IU/L | AST (24 h): 70.2 IU/L | BUN (24 h): 15.6 mg/dL | CRE (24 h): 0.2 mg/dL | Ca (24 h): 10.9 mg/dL | Cl (24 h): 105.8 meq/L | DBIL (24 h): 0.004 mg/dL | GLC (24 h): 177.4 mg/dL | IP (24 h): 8.4 mg/dL | K (24 h): 3.7 meq/L | LDH (24 h): 87.2 IU/L | Na (24 h): 143 meq/L | PL (24 h): 145 mg/dL | RALB (24 h): 2.6 g/dL | TBIL (24 h): 0.032 mg/dL | TC (24 h): 81.4 mg/dL | TG (24 h): 63.6 mg/dL | TP (24 h): 5.5 g/dL | gamma-GTP (24 h): 1 IU/L
